Common to all, as to type: functional
The subject of one assay is Pseudomonas aeruginosa. In words: Antibacterial activity against Pseudomonas aeruginosa PAO1 after 24 hrs by broth microdilution method. Particulars: PAO1, 24 h. A general note: Dilution methods test growth across graded concentrations, often in twofold steps.
For another assay, the system named is Klebsiella aerogenes. In words: Antibacterial activity against Enterobacter aerogenes after 24 hrs by broth microdilution method.
Another assay deals with Staphylococcus aureus. In words: Antibacterial activity against methicillin-sensitive Staphylococcus aureus UAMS-1 after 24 hrs by broth microdilution method. Particulars: UAMS-1, 24 h.
Another assay relates to Klebsiella pneumoniae. Briefly: Antibacterial activity against Klebsiella pneumoniae BAMS clinical isolate 07-18 after 24 hrs by broth microdilution method. Particulars: BAMS clinical isolate 07-18, 24 h.
In another assay the test system is Enterococcus faecium. Briefly: Antibacterial activity against Enterococcus faecium MMC4 after 24 hrs by broth microdilution method. As to conditions: MMC4, 24 h.
The next assay deals with Acinetobacter baumannii. In words: Antibacterial activity against Acinetobacter baumannii WRAIR clinical isolate 13 after 24 hrs by broth microdilution method. As to conditions: WRAIR clinical isolate 13, 24 h.

Values after ≈ are worked out from the molar mass of the structure shown. Square brackets hold non-standard residues; d marks the D form. Peptide text beside a SMILES is read from it. * marks the point of attachment. ξ: configuration not given here. Pro(3ξ,4ξ-(CH2)4) = O=C(O)[C@H]1NCC2CCCCC21; Tic = O=C(O)[C@@H]1Cc2ccccc2CN1; X4 = CC(=O)NC(=O)[C@H](CCCN)N*; X1 = CC(=O)NC(=O)[C@H](CN)N*; Orn = NCCC[C@H](N)C(=O)O; ξE = NC(CCC(=O)O)C(=O)O; Dap = NC[C@H](N)C(=O)O; ξL = CC(C)CC(N)C(=O)O

The values below come from ChEMBL document CHEMBL2375306, “Antimicrobial peptides containing unnatural amino acid exhibit potent bactericidal activity against ESKAPE pathogens” (Bioorg Med Chem, 2013).

One may read the MBC as the smallest concentration meeting the test's criterion for killing. The low end stands for more potent killing, the high end for less potent killing. As a reminder, the MIC is the lowest concentration found to suppress growth. As to `CC(=O)NCC(=O)N[C@@H](Cc1ccccc1)C(=O)N1Cc2ccccc2C[C@H]1C(=O)N1CC2CCCCC2[C@H]1C(=O)NCC(=O)N[C@@H](Cc1c[nH]c2ccccc12)C(=O)N1Cc2ccccc2C[C@H]1C(=O)N1CC2CCCCC2[C@H]1C(=O)NCC(=O)N[C@@H](Cc1ccccc1)C(=O)N1Cc2ccccc2C[C@H]1C(=O)N1CC2CCCCC2[C@H]1C(=O)NCC(=O)N[C@@H](Cc1c[nH]c2ccccc12)C(=O)N1Cc2ccccc2C[C@H]1C(=O)N[C@@H](CCCCN)C(=O)N[C@@H](CCCCN)C(=O)N[C@@H](CCCCN)C(=O)N[C@@H](CCCCN)C(N)=O` (stereo partly drawn) (Ac-GF[Tic][Pro(3ξ,4ξ-(CH2)4)]GW[Tic][Pro(3ξ,4ξ-(CH2)4)]GF[Tic][Pro(3ξ,4ξ-(CH2)4)]GW[Tic]KKKK-NH2), the minimum bactericidal concentration (MBC) in the assay with Pseudomonas aeruginosa is greater than 100 µg/mL; in the assay with Klebsiella aerogenes, greater than 100 µg/mL; in the assay on Staphylococcus aureus, greater than 100 µg/mL; against Klebsiella pneumoniae, greater than 100 µg/mL; in the assay on Enterococcus faecium, 100 µg/mL (≈ 39.1 µM); with Acinetobacter baumannii, 100 µg/mL (≈ 39.1 µM). In addition, the MIC with Pseudomonas aeruginosa is greater than 100 µg/mL; in the assay on Klebsiella aerogenes, greater than 100 µg/mL; with Staphylococcus aureus it was greater than 100 µg/mL; against Klebsiella pneumoniae, greater than 100 µg/mL; against Enterococcus faecium it was 25 µg/mL (≈ 9.78 µM); against Acinetobacter baumannii, 25 µg/mL (≈ 9.78 µM).
`CC(=O)NCC(=O)N[C@@H](Cc1ccccc1)C(=O)N1Cc2ccccc2C[C@H]1C(=O)N1CC2CCCCC2[C@H]1C(=O)NCC(=O)N[C@@H](CN)C(=O)N1Cc2ccccc2C[C@H]1C(=O)N1CC2CCCCC2[C@H]1C(=O)NCC(=O)N[C@@H](Cc1ccccc1)C(=O)N1Cc2ccccc2C[C@H]1C(=O)N1CC2CCCCC2[C@H]1C(=O)NCC(=O)N[C@@H](CN)C(=O)N1Cc2ccccc2C[C@H]1C(=O)N[C@@H](CN)C(=O)N[C@@H](CN)C(=O)N[C@@H](CN)C(=O)N[C@@H](CN)C(=O)NC(C)=O` (stereo partly drawn) (Ac-GF[Tic][Pro(3ξ,4ξ-(CH2)4)]G[Dap][Tic][Pro(3ξ,4ξ-(CH2)4)]GF[Tic][Pro(3ξ,4ξ-(CH2)4)]G[Dap][Tic][Dap][Dap][Dap]-X1): the MBC against Pseudomonas aeruginosa was found to be 25 µg/mL (≈ 11.2 µM); in the assay on Klebsiella aerogenes, 50 µg/mL (≈ 22.4 µM); against Staphylococcus aureus, 100 µg/mL (≈ 44.8 µM); in the assay on Klebsiella pneumoniae it was 25 µg/mL (≈ 11.2 µM); against Enterococcus faecium, 100 µg/mL (≈ 44.8 µM); against Acinetobacter baumannii, 12.5 µg/mL (≈ 5.6 µM). Moreover, the MIC with Pseudomonas aeruginosa is 25 µg/mL (≈ 11.2 µM); with Klebsiella aerogenes it was 50 µg/mL (≈ 22.4 µM); against Staphylococcus aureus, greater than 100 µg/mL; against Klebsiella pneumoniae it was 12.5 µg/mL (≈ 5.6 µM); against Enterococcus faecium it was 50 µg/mL (≈ 22.4 µM); against Acinetobacter baumannii, 12.5 µg/mL (≈ 5.6 µM).
In the case of `CC(=O)NCC(=O)N[C@@H](Cc1ccccc1)C(=O)N1Cc2ccccc2C[C@H]1C(=O)N1CC2CCCCC2[C@H]1C(=O)NCC(=O)N[C@@H](CCCN)C(=O)N1Cc2ccccc2C[C@H]1C(=O)N1CC2CCCCC2[C@H]1C(=O)NCC(=O)N[C@@H](Cc1ccccc1)C(=O)N1Cc2ccccc2C[C@H]1C(=O)N1CC2CCCCC2[C@H]1C(=O)NCC(=O)N[C@@H](CCCN)C(=O)N1Cc2ccccc2C[C@H]1C(=O)N[C@@H](CCCN)C(=O)N[C@@H](CCCN)C(=O)N[C@@H](CCCN)C(=O)N[C@@H](CCCN)C(=O)NC(C)=O` (stereo partly drawn) (Ac-GF[Tic][Pro(3ξ,4ξ-(CH2)4)]G[Orn][Tic][Pro(3ξ,4ξ-(CH2)4)]GF[Tic][Pro(3ξ,4ξ-(CH2)4)]G[Orn][Tic][Orn][Orn][Orn]-X4), the MBC with Pseudomonas aeruginosa was 50 µg/mL (≈ 20.8 µM); in the assay with Klebsiella aerogenes, greater than 100 µg/mL; against Staphylococcus aureus, 100 µg/mL (≈ 41.7 µM); against Klebsiella pneumoniae it was 50 µg/mL (≈ 20.8 µM); in the assay with Enterococcus faecium it was 50 µg/mL (≈ 20.8 µM); in the assay with Acinetobacter baumannii, 25 µg/mL (≈ 10.4 µM). Also, the minimum inhibitory concentration (MIC) in the assay on Pseudomonas aeruginosa was 50 µg/mL (≈ 20.8 µM); in the assay with Klebsiella aerogenes, 100 µg/mL (≈ 41.7 µM); against Staphylococcus aureus, 100 µg/mL (≈ 41.7 µM); against Klebsiella pneumoniae, 50 µg/mL (≈ 20.8 µM); against Enterococcus faecium it was 12.5 µg/mL (≈ 5.21 µM); against Acinetobacter baumannii, 6.25 µg/mL (≈ 2.61 µM).
For `CSCC[C@H](NC(=O)C(CC(C)C)NC(=O)[C@H](CCC(=O)O)NC(=O)[C@@H]1C2CCCCC2CN1C(=O)[C@@H]1Cc2ccccc2CN1C(=O)[C@H](CCCCN)NC(=O)CNC(=O)[C@H](CC(C)C)NC(=O)CNC(=O)[C@@H]1C2CCCCC2CN1C(=O)[C@@H]1Cc2ccccc2CN1C(=O)C(CCC(=O)O)NC(=O)[C@H](CCCCN)NC(=O)CNC(=O)[C@H](CC(C)C)NC(=O)CNC(=O)[C@@H]1C2CCCCC2CN1C(=O)[C@@H]1Cc2ccccc2CN1C(=O)[C@H](CCCCN)NC(=O)CNC(C)=O)C(=O)NCC(=O)N[C@@H](CCC(=O)O)C(=O)N[C@@H](CCCNC(=N)N)C(N)=O` (stereo partly drawn) (Ac-GK[Tic][Pro(3ξ,4ξ-(CH2)4)]GLGK[ξE][Tic][Pro(3ξ,4ξ-(CH2)4)]GLGK[Tic][Pro(3ξ,4ξ-(CH2)4)]E[ξL]MGER-NH2), the MBC in the assay on Pseudomonas aeruginosa, in the assay on Klebsiella aerogenes, against Staphylococcus aureus, with Klebsiella pneumoniae, in the assay on Enterococcus faecium and in the assay on Acinetobacter baumannii was greater than 100 µg/mL in each case. Besides, the MIC in the assay with Pseudomonas aeruginosa, with Klebsiella aerogenes, against Staphylococcus aureus, in the assay with Klebsiella pneumoniae, against Enterococcus faecium and in the assay on Acinetobacter baumannii was greater than 100 µg/mL in each case.
